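Five compound concentrations were applied to cells in 96-well plates for 48 hours; endpoints were derived by simple linear interpolation of the resulting dose-response curve. GI50 marks 50% less growth. The concentration for full growth arrest is given as TGI.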 Where a SMILES comes first, the peptide text is derived from it. [ ]: non-standard residue; d: D form. The star is where a group is joined. X13 = OC[C@H](CC1CCCCC1)N*; Aib = CC(C)(N)C(=O)O
Tests used:
Experiment in all cases: NCI anticancer screen, dose series, 48 h
A498 renal = tested on: A498 renal
BT-549 breast = tested on: BT-549 breast
SW-620 colon = tested on: SW-620 colon
CCRF-CEM leukemia = tested on: CCRF-CEM leukemia
OVCAR-8 ovarian = tested on: OVCAR-8 ovarian
HS 578T breast = tested on: HS 578T breast
SF-539 CNS = tested on: SF-539 CNS
LOX IMVI melanoma = tested on: LOX IMVI melanoma
HT29 colon = tested on: HT29 colon
K-562 leukemia = tested on: K-562 leukemia
M14 melanoma = tested on: M14 melanoma
NCI-H522 lung = tested on: NCI-H522 lung
HL-60(TB) leukemia = tested on: HL-60(TB) leukemia
HCC-2998 colon = tested on: HCC-2998 colon
OVCAR-5 ovarian = tested on: OVCAR-5 ovarian
MALME-3M melanoma = tested on: MALME-3M melanoma
UACC-62 melanoma = tested on: UACC-62 melanoma
HCT-15 colon = tested on: HCT-15 colon
786-0 renal = tested on: 786-0 renal
UACC-257 melanoma = tested on: UACC-257 melanoma
RPMI-8226 leukemia = tested on: RPMI-8226 leukemia
SF-268 CNS = tested on: SF-268 CNS
OVCAR-4 ovarian = tested on: OVCAR-4 ovarian
SK-MEL-2 melanoma = tested on: SK-MEL-2 melanoma
SR leukemia = tested on: SR leukemia
SK-OV-3 ovarian = tested on: SK-OV-3 ovarian
T-47D breast = tested on: T-47D breast
SK-MEL-28 melanoma = tested on: SK-MEL-28 melanoma
OVCAR-3 ovarian = tested on: OVCAR-3 ovarian
MDA-MB-231 breast = tested on: MDA-MB-231 breast
NCI-H460 lung = tested on: NCI-H460 lung
TK-10 renal = tested on: TK-10 renal
SNB-19 CNS = tested on: SNB-19 CNS
A549 NSCLC = tested on: A549 NSCLC
SK-MEL-5 melanoma = tested on: SK-MEL-5 melanoma
DU-145 prostate = tested on: DU-145 prostate
PC-3 prostate = tested on: PC-3 prostate
UO-31 renal = tested on: UO-31 renal
HOP-62 NSCLC = tested on: HOP-62 NSCLC
SN12C renal = tested on: SN12C renal
SNB-75 CNS = tested on: SNB-75 CNS
MOLT-4 leukemia = tested on: MOLT-4 leukemia
ACHN renal = tested on: ACHN renal
NCI/ADR-RES ovarian = tested on: NCI/ADR-RES ovarian
EKVX NSCLC = tested on: EKVX NSCLC
U251 CNS = tested on: U251 CNS
SF-295 CNS = tested on: SF-295 CNS
RXF 393 renal = tested on: RXF 393 renal
HOP-92 NSCLC = tested on: HOP-92 NSCLC
NCI-H226 lung = tested on: NCI-H226 lung
NCI-H23 lung = tested on: NCI-H23 lung
MCF7 breast = tested on: MCF7 breast
MDA-MB-435 = tested on: MDA-MB-435
HCT-116 colon = tested on: HCT-116 colon
KM12 colon = tested on: KM12 colon
IGROV1 ovarian = tested on: IGROV1 ovarian
COLO 205 colon = tested on: COLO 205 colon

CC(=O)NC(C)(C)C(=O)N[C@@H](C)C(=O)NC(C)(C)C(=O)N[C@@H](C)C(=O)NC(C)(C)C(=O)N[C@@H](C)C(=O)N[C@@H](CCC(N)=O)C(=O)NC(C)(C)C(=O)N[C@H](C(=O)NC(C)(C)C(=O)NCC(=O)N[C@@H](CC(C)C)C(=O)NC(C)(C)C(=O)N1CCC[C@H]1C(=O)N[C@H](C(=O)NC(C)(C)C(=O)NC(C)(C)C(=O)N[C@@H](CCC(N)=O)C(=O)N[C@@H](CCC(N)=O)C(=O)N[C@H](CO)CC1CCCCC1)C(C)C)C(C)C (Ac-[Aib]A[Aib]A[Aib]AQ[Aib]V[Aib]GL[Aib]PV[Aib][Aib]QQ-X13)
GI50 (A498 renal): > 4120 nM | TGI (A498 renal): > 5000 nM | GI50 (BT-549 breast): 1430 nM | TGI (BT-549 breast): > 5000 nM | GI50 (SW-620 colon): 1650 nM | TGI (SW-620 colon): > 5000 nM | GI50 (CCRF-CEM leukemia): > 4800 nM | TGI (CCRF-CEM leukemia): > 5000 nM | GI50 (OVCAR-8 ovarian): > 4250 nM | TGI (OVCAR-8 ovarian): > 5000 nM | GI50 (HS 578T breast): 3710 nM | TGI (HS 578T breast): > 5000 nM | GI50 (SF-539 CNS): 2280 nM | TGI (SF-539 CNS): > 5000 nM | GI50 (LOX IMVI melanoma): 1560 nM | TGI (LOX IMVI melanoma): > 5000 nM | GI50 (HT29 colon): 286 nM | TGI (HT29 colon): > 5000 nM | GI50 (K-562 leukemia): 2200 nM | TGI (K-562 leukemia): > 5000 nM | GI50 (M14 melanoma): 221 nM | TGI (M14 melanoma): > 5000 nM | GI50 (NCI-H522 lung): 1040 nM | TGI (NCI-H522 lung): > 5000 nM | GI50 (HL-60(TB) leukemia): 1300 nM | TGI (HL-60(TB) leukemia): > 5000 nM | GI50 (HCC-2998 colon): 2910 nM | TGI (HCC-2998 colon): > 5000 nM | GI50 (OVCAR-5 ovarian): > 4670 nM | TGI (OVCAR-5 ovarian): > 5000 nM | GI50 (MALME-3M melanoma): 30.6 nM | TGI (MALME-3M melanoma): 239 nM | GI50 (UACC-62 melanoma): 609 nM | TGI (UACC-62 melanoma): > 5000 nM | GI50 (HCT-15 colon): > 5000 nM | TGI (HCT-15 colon): > 5000 nM | GI50 (786-0 renal): > 5000 nM | TGI (786-0 renal): > 5000 nM | GI50 (UACC-257 melanoma): 446 nM | TGI (UACC-257 melanoma): 2670 nM | GI50 (RPMI-8226 leukemia): 1160 nM | TGI (RPMI-8226 leukemia): 4000 nM | GI50 (SF-268 CNS): 2240 nM | TGI (SF-268 CNS): > 5000 nM | GI50 (OVCAR-4 ovarian): 1580 nM | TGI (OVCAR-4 ovarian): > 5000 nM | GI50 (SK-MEL-2 melanoma): 1440 nM | TGI (SK-MEL-2 melanoma): > 5000 nM | GI50 (SR leukemia): 3370 nM | TGI (SR leukemia): > 5000 nM | GI50 (SK-OV-3 ovarian): > 5000 nM | TGI (SK-OV-3 ovarian): > 5000 nM | GI50 (T-47D breast): 1260 nM | TGI (T-47D breast): > 5000 nM | GI50 (SK-MEL-28 melanoma): 199 nM | TGI (SK-MEL-28 melanoma): 1370 nM | GI50 (OVCAR-3 ovarian): 1680 nM | TGI (OVCAR-3 ovarian): > 5000 nM | GI50 (MDA-MB-231 breast): 2490 nM | TGI (MDA-MB-231 breast): > 5000 nM | GI50 (NCI-H460 lung): 1510 nM | TGI (NCI-H460 lung): > 5000 nM | GI50 (TK-10 renal): 3430 nM | TGI (TK-10 renal): > 5000 nM | GI50 (SNB-19 CNS): 1790 nM | TGI (SNB-19 CNS): > 5000 nM | GI50 (A549 NSCLC): > 5000 nM | TGI (A549 NSCLC): > 5000 nM | GI50 (SK-MEL-5 melanoma): 1100 nM | TGI (SK-MEL-5 melanoma): > 3140 nM | GI50 (DU-145 prostate): 1330 nM | TGI (DU-145 prostate): > 5000 nM | GI50 (PC-3 prostate): 1980 nM | TGI (PC-3 prostate): > 5000 nM | GI50 (UO-31 renal): > 3960 nM | TGI (UO-31 renal): > 5000 nM | GI50 (HOP-62 NSCLC): > 5000 nM | TGI (HOP-62 NSCLC): > 5000 nM | GI50 (SN12C renal): 1820 nM | TGI (SN12C renal): > 5000 nM | GI50 (SNB-75 CNS): 1070 nM | TGI (SNB-75 CNS): > 5000 nM | GI50 (MOLT-4 leukemia): > 5000 nM | TGI (MOLT-4 leukemia): > 5000 nM | GI50 (ACHN renal): > 5000 nM | TGI (ACHN renal): > 5000 nM | GI50 (NCI/ADR-RES ovarian): > 5000 nM | TGI (NCI/ADR-RES ovarian): > 5000 nM | GI50 (EKVX NSCLC): 2290 nM | TGI (EKVX NSCLC): > 5000 nM | GI50 (U251 CNS): 2190 nM | TGI (U251 CNS): > 5000 nM | GI50 (SF-295 CNS): 1640 nM | TGI (SF-295 CNS): > 5000 nM | GI50 (RXF 393 renal): 2630 nM | TGI (RXF 393 renal): > 5000 nM | GI50 (HOP-92 NSCLC): 1010 nM | TGI (HOP-92 NSCLC): 3800 nM | GI50 (NCI-H226 lung): 2060 nM | TGI (NCI-H226 lung): > 5000 nM | GI50 (NCI-H23 lung): 1380 nM | TGI (NCI-H23 lung): > 5000 nM | GI50 (MCF7 breast): 399 nM | TGI (MCF7 breast): > 5000 nM | GI50 (MDA-MB-435): 834 nM | TGI (MDA-MB-435): > 5000 nM | GI50 (HCT-116 colon): 2040 nM | TGI (HCT-116 colon): > 5000 nM | GI50 (KM12 colon): > 4100 nM | TGI (KM12 colon): > 5000 nM | GI50 (IGROV1 ovarian): 3060 nM | TGI (IGROV1 ovarian): > 5000 nM | GI50 (COLO 205 colon): 178 nM | TGI (COLO 205 colon): 1220 nM
